{"source": "patent US11360080B2", "about": "“AhR-ROR-γt complex as a biomarker and therapeutic target for autoimmune disease and IL-17A-associated disease” (NATIONAL HEALTH RESEARCH INSTITUTES, priority 2018, dated 2022)", "test_system": "GLK", "experiment": "GLK shRNA knockdown in T cells of Lck-GLK Tg mice, flow cytometry of IL-17A-producing T cells", "format": "cell-based, mouse", "settings": "anti-CD3 3 h, day 3 post-transfection", "experimental": "(A) Hematoxylin and eosin-stained sections of indicated organs from mice. Arrows, infiltrating immune cells. Bar, 100 μm. (B) Levels of serum autoantibodies from mice were determined by ELISA assays. The levels are presented relative to the value from one of wild-type mice. (C) The serum levels of cytokines in mice were determined by ELISA assays. (D) The serum levels of autoantibodies in Lck-GLK and Lck-GLK/IL-17A KO mice were determined by ELISA assays. The levels are presented relative to the value from one of Lck-GLK mice. (E) IL-17A expression was attenuated by GLK shRNA. Murine primary splenic T cells were transfected with GFP-human GLK shRNA and a control GFP vector. The transfected T cells were stimulated with anti-mouse CD3 antibodies for 3 h and then determined by flow cytometry at day 3 post-transfection. […] WT, wild-type littermate controls; Lck-GLK, T-cell-specific GLK transgenic mice. Lck-GLK/IL-17A KO, Lck-GLK; IL-17A-deficient mice. ANA, anti-nuclear antibody; α-dsDNA, anti-dsDNA antibody; RF, rheumatoid factor. *, P value<0.05; **, P value<0.01 (two-tailed Student's t-test).\nHuman Jurkat T leukaemia cells (TIB-152) were cultured in RPMI-1640 medium (Invitrogen) containing 10% fetal calf serum plus penicillin (10 units per ml) and streptomycin ([…]). […]"}
{"substance": "GLK shRNA: human GLK shRNA (5′-GTGCCACTTAGAATGTTTGAAA-3, SEQ ID NO: 7) subcloned into pSUPER-GFP vector", "values": [{"measurement": "IL-17A overproduction in T cells from Lck-GLK Tg mice", "result": "abolished"}]}
